Where a name gives a salt, the structure may show the parent alone.
Biological target: T1, human hNET (Homo sapiens, UniProt P23975)
T1 construct: expressed in transfected cells
Assay: Norepinephrine (NE) uptake assay
Format: cell-based
Conditions: 1 μM test compound; MDCK-Net6 cells stably transfected with human hNET; [3H]NE uptake
Description: MDCK-Net6 cells, stably transfected with human hNET (Pacholczyk, T., R. D. Blakely, and S. G. Amara, Nature, 1991, 350(6316): p. 350-4) were cultured in growth medium containing high glucose DMEM (Gibco, Cat. No. 11995), 10% FBS (dialyzed, heat-inactivated, US Bio-Technologies, Lot FBD1129HI) and 500 µg/ml G418 (Gibco, Cat. No. 10131). Cells were plated at 300,000/T75 flask and cells were split twice weekly. The JAR cell line (human placental choriocarcinoma) was purchased from ATCC (Cat. No. HTB-144). The cells were cultured in growth medium containing RPMI 1640 (Gibco, Cat. No. 72400), 10% FBS (Irvine, Cat. No. 3000), 1% sodium pyruvate (Gibco, Cat. No. 1136) and 0.25% glucose. Cells were plated at 250,000 cells/T75 flask and split twice weekly. For all assays, cells were plated in Wallac 96-well sterile plates (PerkinElmer, Cat. No. 3983498).
On day 1, cells were plated at 3,000 cells/well in growth medium and maintained in a cell incubator (37° C., 5% CO2). On day 2, growth medium was replaced with 200 μl of assay buffer (25 mM HEPES; 120 mM NaCl; 5 mM KCl; 2.5 mM CaCl2; 1.2 mM MgSO4; 2 mg/ml glucose (pH 7.4, 37° C.)) containing 0.2 mg/ml ascorbic acid and 10 μM pargyline. Plates containing cells with 200 μl of assay buffer were equilibrated for 10 minutes at 37° C. prior to addition of compounds. A stock solution of desipramine was prepared in DMSO (10 mM) and delivered to triplicate wells containing cells for a final test concentration of 1 μM. Data from these wells were used to define non-specific NE uptake (minimum NE uptake). Test compounds were prepared in DMSO (10 mM) and diluted in assay buffer according to test range (1 to 10,000 nM). Twenty-five microliters of assay buffer (maximum NE uptake) or test compound were added directly to triplicate wells containing cells in 200 μl of assay buffer. The cells in assay buffer with test compounds were incubated for 20 minutes at 37° C. To initiate the NE uptake, [^3H]NE diluted in assay buffer (120 nM final assay concentration) was delivered in 25 μl aliquots to each well and the plates were incubated for 5 minutes (37° C.). The reaction was terminated by decanting the supernatant from the plate. The plates containing cells were washed twice with 200 μl assay buffer (37° C.) to remove free radioligand. The plates were then inverted, left to dry for 2 minutes, then reinverted and air-dried for an additional 10 minutes. The cells were lysed in 25 μl of 0.25 N NaOH solution (4° C.), placed on a shake table and vigorously shaken for 5 minutes. After cell lysis, 75 μl of scintillation cocktail was added to each well and the plates were sealed with film tape. The plates were returned to the shake table and vigorously shaken for a minimum of 10 minutes to ensure adequate partitioning of organic and aqueous solutions. The plates were counted in a Wallac Microbeta counter (PerkinElmer) to collect the raw cpm data.
For each experiment, a data stream of cpm values collected from the Wallac Microbeta counter was downloaded to a Microsoft Excel statistical application program. Calculations of EC50 values were made using the transformed-both-sides logistic dose response program written by Wyeth Biometrics Department. The statistical program uses mean cpm values from wells representing maximum binding or uptake (assay buffer) and mean cpm values from wells representing minimum binding or uptake ((1 μM desipramine (hNET) or 1 μM paroxetine (hSERT)). Estimation of the EC50 value was completed on a log scale and the line was fit between the maximum and minimum binding or uptake values. All graphic data representation was generated by normalizing each data point to a mean percent based on the maximum and minimum binding or uptake values. The EC50 values reported from multiple experiments were calculated by pooling the raw data from each experiment and analyzing the pooled data as one experiment.

T1 sequence (P23975 whole entry): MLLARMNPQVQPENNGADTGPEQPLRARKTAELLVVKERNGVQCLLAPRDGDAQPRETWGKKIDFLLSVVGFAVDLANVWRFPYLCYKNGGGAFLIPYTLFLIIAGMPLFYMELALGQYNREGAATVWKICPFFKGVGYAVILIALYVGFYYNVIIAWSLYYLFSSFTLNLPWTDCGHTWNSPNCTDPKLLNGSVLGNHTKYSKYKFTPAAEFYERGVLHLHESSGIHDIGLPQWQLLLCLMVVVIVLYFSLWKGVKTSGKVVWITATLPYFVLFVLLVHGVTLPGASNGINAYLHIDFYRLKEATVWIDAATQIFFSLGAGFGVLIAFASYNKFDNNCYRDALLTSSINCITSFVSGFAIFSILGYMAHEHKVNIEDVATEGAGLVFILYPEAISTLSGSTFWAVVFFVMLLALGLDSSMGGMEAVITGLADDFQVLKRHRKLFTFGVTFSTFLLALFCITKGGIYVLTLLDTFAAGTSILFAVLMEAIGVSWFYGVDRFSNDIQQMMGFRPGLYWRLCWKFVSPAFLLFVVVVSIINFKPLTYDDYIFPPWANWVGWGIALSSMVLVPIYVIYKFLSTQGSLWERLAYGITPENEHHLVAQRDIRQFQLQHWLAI

Row | Compound | inhibition at 1 µM [%]
1 | CNC[C@@H](O)[C@H](c1ccccc1)N1CCOc2ccccc21 (racemic) [Example 2, (1RS,2SR)-1-(2,3-dihydro-4H-1,4-benzoxazin-4-yl)-3-(methylamino)-1-phenylpropan-2-ol dihydrochloride] | 33.7
2 | CNC[C@@H](O)[C@H](c1ccccc1)N1CCN(C)c2ccccc21 (racemic) [Example 4, (1SR,2RS)-3-(methylamino)-1-(4-methyl-3,4-dihydroquinoxalin-1(2H)-yl)-1-phenylpropan-2-ol hydrochloride] | 46.2
3 | CNC[C@@H](O)[C@H](c1ccccc1)N1CCN(CC(F)(F)F)c2ccccc21 (racemic) [Example 5, (1SR,2RS)-3-(methylamino)-1-phenyl-1-[4-(2,2,2-trifluoroethyl)-3,4-dihydroquinoxalin-1(2H)-yl]propan-2-ol hydrochloride] | 52.9
4 | CNC[C@@H](O)[C@H](c1ccccc1)N1CCOc2ccc(Cl)cc21 (racemic) [Example 11, (1RS,2SR)-1-(6-chloro-2,3-dihydro-4H-1,4-benzoxazin-4-yl)-3-(methylamino)-1-phenylpropan-2-ol hydrochloride] | 60.6
5 | CNC[C@@H](O)[C@H](c1ccccc1)N1CCOc2ccc(C)cc21 (racemic) [Example 12, (1RS,2SR)-3-(methylamino)-1-(6-methyl-2,3-dihydro-4H-1,4-benzoxazin-4-yl)-1-phenylpropan-2-ol hydrochloride] | 3.4
6 | CNC[C@@H](O)[C@H](c1ccccc1)N1CCOc2ccc(Cl)cc21 (single isomer, unassigned) [Example 13, hydrochloride] | 38.6
7 | CNC[C@H](O)[C@@H](c1ccccc1)N1CCOc2ccc(Cl)cc21 (single isomer, unassigned) [Example 14, hydrochloride] | 41.5
8 | CNC[C@@H](O)[C@H](c1cccc(F)c1)N1C[C@@H](c2ccccc2)Oc2ccccc21 (single isomer, unassigned) [Example 20, hydrochloride] | 97.2
9 | CNC[C@@H](O)[C@H](c1cccc(F)c1)N1C[C@H](c2ccccc2)Oc2ccccc21 (single isomer, unassigned) [Example 21, hydrochloride] | 51.7
10 | CNC[C@@H](O)[C@H](c1cc(F)cc(F)c1)N1CCOc2ccc(Cl)cc21 [Example 8, (1S,2R)-1-(6-chloro-2,3-dihydro-4H-1,4-benzoxazin-4-yl)-1-(3,5-difluorophenyl)-3-(methylamino)propan-2-ol hydrochloride] | 12.5
11 | CNC[C@@H](O)[C@H](c1cccc(F)c1)N1CC(C)Oc2ccccc21 (stereo partly drawn) [Example 9, (1S,2R)-1-(3-fluorophenyl)-3-(methylamino)-1-(2-methyl-2,3-dihydro-4H-1,4-benzoxazin-4-yl)propan-2-ol hydrochloride] | 53.9
12 | CNC[C@@H](O)[C@H](c1cccc(F)c1)N1CCOc2ccc(Cl)cc21 [Example 15, (1S,2R)-1-(6-chloro-2,3-dihydro-4H-1,4-benzoxazin-4-yl)-1-(3-fluorophenyl)-3-(methylamino)propan-2-ol hydrochloride] | 41.4
13 | CNC[C@@H](O)[C@H](c1cccc(F)c1)N1CC(C)(C)Oc2ccccc21 [Example 16, (1S,2R)-1-(2,2-dimethyl-2,3-dihydro-4H-1,4-benzoxazin-4-yl)-1-(3-fluorophenyl)-3-(methylamino)propan-2-ol hydrochloride] | 10
14 | CNC[C@@H](O)[C@H](c1ccccc1)N1CC(C)(C)Oc2ccccc21 [Example 17, (1S,2R)-1-(2,2-dimethyl-2,3-dihydro-4H-1,4-benzoxazin-4-yl)-3-(methylamino)-1-phenylpropan-2-ol hydrochloride] | 9.3
15 | CNC[C@@H](O)[C@H](c1cccc(F)c1)N1CCSc2ccccc21 [Example 18, (1S,2R)-1-(2,3-dihydro-4H-1,4-benzothiazin-4-yl)-1-(3-fluorophenyl)-3-(methylamino)propan-2-ol hydrochloride] | 90.4
16 | CNC[C@@H](O)[C@H](c1cccc(F)c1)N1CC(c2ccccc2)Oc2ccccc21 (stereo partly drawn) [Example 19, (1S,2R)-1-(3-fluorophenyl)-3-(methylamino)-1-(2-phenyl-2,3-dihydro-4H-1,4-benzoxazin-4-yl)propan-2-ol hydrochloride] | 95

Source: patent US7638512B2, “Phenylaminopropanol derivatives and methods of their use” (Wyeth, priority 2004, dated 2009)
